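Tested at 5 concentrations; 48 h exposure; 96-well plates; endpoints linearly interpolated, else capped at highest concentration. At the GI50, growth is halved. TGI denotes the concentration required for complete inhibition of growth.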

These results are taken from PubChem BioAssay (NCI).

Some test systems named below: NCI-H226 lung; KM12 colon; SF-268 CNS; HT29 colon; CAKI-1 renal; TK-10 renal; U251 CNS; MCF7 breast; K-562 leukemia; UACC-62 melanoma.
Experiment in all cases: NCI tumour cell line growth inhibition, 48 h

Consider `Cc1nc2sc(C(=O)Nc3cccc(Cl)c3C)c(N)c2cc1C(O)c1ccccc1` (stereo not drawn), for which the GI50 in the test with NCI-H226 lung was 1190 nM; in the test on KM12 colon, 37.2 nM; in the test on SF-268 CNS, 318 nM; in the test on HT29 colon, 35.5 nM; in the test with CAKI-1 renal, 48.7 nM; with TK-10 renal it was 2040 nM. Further, the GI50 with U251 CNS is 39 nM; with MCF7 breast, 33.2 nM; in the test on K-562 leukemia it was 30.2 nM; in the test with UACC-62 melanoma, 87 nM. Further, the TGI in the test on NCI-H226 lung was determined as 22.8 µM; in the test on KM12 colon, 5.22 µM; in the test on SF-268 CNS, 11.7 µM; in the test with HT29 colon, 8.35 µM; in the test on CAKI-1 renal, 8.46 µM; with TK-10 renal, 25.6 µM. In addition, the TGI in the test with U251 CNS was 13.8 µM; in the test with MCF7 breast, 11.3 µM; in the test on K-562 leukemia it was greater than 48.6 µM; in the test on UACC-62 melanoma, 12 µM.

As for `COC(=O)[C@]12CC[C@@H](C)[C@H](C)[C@@H]1C1=CC[C@@H]3[C@@]4(C)C(C=O)=C[C@@](C)(COC(=O)c5ccco5)C4=CC[C@@]3(C)[C@]1(C)CC2`, the GI50 was 2330 nM in the test on NCI-H226 lung; 3270 nM in the test on KM12 colon; 2930 nM in the test on SF-268 CNS; 2980 nM in the test with HT29 colon; 3320 nM with CAKI-1 renal; 2420 nM with TK-10 renal. Moreover, the GI50 was 2060 nM in the test on U251 CNS, 2770 nM in the test with MCF7 breast, 3700 nM with K-562 leukemia and 83.1 nM in the test on UACC-62 melanoma. For the same compound, the TGI in the test with NCI-H226 lung came out at 7.79 µM; in the test with KM12 colon it was 19.9 µM; in the test on SF-268 CNS, 9.92 µM; in the test on HT29 colon, 9.47 µM; in the test with CAKI-1 renal, 25.2 µM; with TK-10 renal, 12.5 µM. Further, the TGI is 10.8 µM in the test on U251 CNS, 10.3 µM with MCF7 breast, 17.3 µM in the test with K-562 leukemia and 2.24 µM in the test on UACC-62 melanoma.

Turning to `COC(=O)C(Br)(C(=O)OC)C(Br)C(Br)C(Br)c1ccccc1` (stereo not drawn), the GI50 with NCI-H226 lung is 2190 nM; with KM12 colon, 7830 nM; in the test on SF-268 CNS, 5500 nM; in the test with HT29 colon, 1800 nM; in the test on CAKI-1 renal, 1760 nM; in the test on TK-10 renal, 2350 nM. For the same compound, the GI50 in the test on U251 CNS is 3990 nM; in the test with MCF7 breast it was 1670 nM; in the test on K-562 leukemia, 2950 nM; in the test with UACC-62 melanoma, 2280 nM. Moreover, the TGI in the test with NCI-H226 lung is 5.71 µM; in the test with KM12 colon, 21 µM; in the test with SF-268 CNS, 16.5 µM; in the test on HT29 colon, 3.34 µM; with CAKI-1 renal, 3.73 µM; with TK-10 renal, 6.19 µM. Besides, the TGI in the test on U251 CNS is 10.6 µM; in the test with MCF7 breast, 5.07 µM; in the test on K-562 leukemia it was 9.93 µM; in the test with UACC-62 melanoma it was 6.56 µM.

In the case of `CCN1Cc2c(/C=C/c3ccccc3)nc3ccc(OC)cc3c2N(c2cccc(Cl)c2)C1`, the GI50 was 1650 nM in the test with NCI-H226 lung; 1810 nM with KM12 colon; 1870 nM with SF-268 CNS; 1450 nM in the test on HT29 colon; 1510 nM in the test on CAKI-1 renal; 1620 nM in the test on TK-10 renal. The GI50 in the test with U251 CNS is 1710 nM; in the test with MCF7 breast, 1650 nM; in the test with UACC-62 melanoma, 1490 nM. The TGI in the test with NCI-H226 lung was 3.5 µM; in the test with KM12 colon it was 3.49 µM; in the test with SF-268 CNS it was 3.67 µM; in the test on HT29 colon, 3.03 µM; in the test with CAKI-1 renal, 3.57 µM; with TK-10 renal, 3.43 µM. Besides, the figures for the TGI in the test on U251 CNS, with MCF7 breast and in the test with UACC-62 melanoma were 3.3 µM, 3.75 µM and 3.06 µM, respectively.

For the compound `CCCCc1n(Cc2ccc3ccccc3n2)cc[n+]1Cc1ccc2ccccc2c1`, the GI50 in the test on NCI-H226 lung is 1000 nM; with KM12 colon it was 715 nM; in the test on SF-268 CNS, 984 nM; with HT29 colon, 592 nM; with CAKI-1 renal, 1620 nM; with TK-10 renal, 1490 nM. Besides, the GI50 with U251 CNS was 661 nM; in the test on MCF7 breast, 690 nM; in the test with K-562 leukemia, 359 nM; with UACC-62 melanoma, 579 nM. The TGI in the test with NCI-H226 lung amounted to 6.12 µM; in the test on KM12 colon, 2.11 µM; in the test with SF-268 CNS it was 2.92 µM; in the test with HT29 colon, 2.85 µM; in the test with CAKI-1 renal, 3.64 µM; in the test on TK-10 renal, 3.69 µM. The TGI in the test on U251 CNS came to 2.06 µM; in the test on MCF7 breast, 2.27 µM; with K-562 leukemia, 2.36 µM; in the test with UACC-62 melanoma, 1.86 µM.

As to `COc1ccccc1CNC(=O)/C=C/c1ccc(O)c(O)c1`, the GI50 is 51800 nM in the test with NCI-H226 lung; 59400 nM in the test on KM12 colon; 90700 nM in the test with SF-268 CNS; 50500 nM with HT29 colon; 30300 nM in the test with CAKI-1 renal; 17900 nM with TK-10 renal. The GI50 was 42000 nM in the test with U251 CNS, greater than 100000 nM with MCF7 breast, 39600 nM with K-562 leukemia and 34800 nM with UACC-62 melanoma. The TGI with NCI-H226 lung, in the test with KM12 colon, in the test with SF-268 CNS, in the test with HT29 colon, with CAKI-1 renal and in the test with TK-10 renal was greater than 100 µM in each case. For the same compound, the TGI in the test with U251 CNS, in the test with MCF7 breast, with K-562 leukemia and with UACC-62 melanoma was greater than 100 µM each time.

Regarding `Cn1c(=S)c2[nH]c(SCc3cccnc3)nc2n(C)c1=O`, the TGI in the test with NCI-H226 lung, in the test on KM12 colon, in the test on SF-268 CNS, in the test on HT29 colon, in the test on CAKI-1 renal and in the test with TK-10 renal was greater than 100 µM throughout. The TGI in the test on U251 CNS, in the test with MCF7 breast, in the test on K-562 leukemia and with UACC-62 melanoma was greater than 100 µM in each case.

As to `COc1ccc2c3c1OC1C4(CCC5C(C2)N(CC2CC2)CCC351)OCCO4` (stereo not drawn), the TGI with NCI-H226 lung, in the test with KM12 colon, in the test on SF-268 CNS, in the test on HT29 colon, in the test with CAKI-1 renal and with TK-10 renal was greater than 100 µM in each case. For the same compound, the TGI in the test on U251 CNS, in the test on MCF7 breast, in the test on K-562 leukemia and with UACC-62 melanoma was greater than 100 µM each time.
